According to patent publication US10988449B2, “Isoxazole derivatives as nuclear receptor agonists and uses thereof” (IL DONG PHARMACEUTICAL CO., LTD., priority 2017, dated 2021):
Counter-ions that a name gives are not always drawn.

Biological target: T1, human FXR (Homo sapiens, UniProt Q96RI1)
T1 construct: expressed in transfected cells
T1 sequence (Q96RI1 1-486): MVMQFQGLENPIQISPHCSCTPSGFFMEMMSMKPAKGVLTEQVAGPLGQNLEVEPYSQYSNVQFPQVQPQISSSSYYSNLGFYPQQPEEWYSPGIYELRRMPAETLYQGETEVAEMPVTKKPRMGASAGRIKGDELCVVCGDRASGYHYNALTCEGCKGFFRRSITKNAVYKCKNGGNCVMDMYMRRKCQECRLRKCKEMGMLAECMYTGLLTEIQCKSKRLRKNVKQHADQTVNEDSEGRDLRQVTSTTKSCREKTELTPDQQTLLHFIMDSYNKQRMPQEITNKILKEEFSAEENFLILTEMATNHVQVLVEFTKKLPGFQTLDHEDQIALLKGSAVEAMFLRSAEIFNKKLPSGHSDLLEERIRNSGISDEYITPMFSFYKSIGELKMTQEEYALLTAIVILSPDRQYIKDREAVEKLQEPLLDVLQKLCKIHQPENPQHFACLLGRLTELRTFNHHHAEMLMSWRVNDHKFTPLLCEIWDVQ
Assay: FXR reporter assay (cellular FXR activities)
Format: cell-based
Details: for EC50: FXR reporter cells, 24 hours incubation, luciferase, read-out: Reporter Cell EC50; for Emax: read-out: Emax (%) (GW4064 Emax = 100%)
Procedure: FXR reporter assay was performed to measure cellular FXR activities of the compounds in the present invention. FXR reporter cells with high expression level of human FXR were seeded into 96-well cell culture plates, and incubated for 1-2 hours at 37° C. under 5% CO2 atmosphere. The invented compounds diluted in DMSO with various concentrations were added to the 96-well cell culture plates, and they were incubated for 24 hours at 37° C. under 5% CO2 atmosphere. After incubation, we calculate EC50 by using luciferase substrate.

Row | SMILES | EC50 | Emax
1 | CN(C)Cc1cc(C#Cc2ccc(OCc3c(-c4c(Cl)cccc4Cl)noc3C3CC3)cc2Cl)cc(C(=O)O)c1 [Compound I-49, 3-((2-chloro-4-((5-cyclopropyl-3-(2,6-dichlorophenyl)isoxazol-4-yl)methoxy)phenyl)ethynyl)-5-((dimethylamino)methyl)benzoic acid] | 20 to 60 nM | > 100%
2 | COc1c(N)cc(C(=O)O)cc1C#Cc1ccc(OCc2c(-c3c(Cl)cccc3Cl)noc2C2CC2)cc1Cl [Compound I-61, 3-amino-5-((2-chloro-4-((5-cyclopropyl-3-(2,6-dichlorophenyl)isoxazol-4-yl)methoxy)phenyl)ethynyl)-4-methoxybenzoic acid] | 60 to 200 nM | 95%
3 | O=C(O)c1cc(C#Cc2ccc(OCc3c(-c4c(Cl)cccc4Cl)noc3C3CC3)cc2Cl)cc2nccnc12 [Compound I-108, 7-((2-chloro-4-((5-cyclopropyl-3-(2,6-dichlorophenyl)isoxazol-4-yl)methoxy)phenyl)ethynyl)quinoxaline-5-carboxylic acid] | 20 to 60 nM | 98%
4 | NS(=O)(=O)c1cccc(C#Cc2ccc(OCc3c(-c4c(Cl)cccc4Cl)noc3C3CC3)cc2Cl)c1 [Compound I-12, 3-((2-chloro-4-((5-cyclopropyl-3-(2,6-dichlorophenyl)isoxazol-4-yl)methoxy)phenyl)ethynyl)benzenesulfonamide] | 200 to 1000 nM | > 100%
5 | Cc1nc2cc(C#Cc3ccc(OCc4c(-c5c(Cl)cccc5Cl)noc4C4CC4)cc3Cl)cc(C(=O)O)c2nc1C [Compound I-109, 7-((2-chloro-4-((5-cyclopropyl-3-(2,6-dichlorophenyl)isoxazol-4-yl)methoxy)phenyl)ethynyl)-2,3-dimethylquinoxaline-5-carboxylic acid] | 20 to 60 nM | 100%
6 | O=C(O)c1cc(C#Cc2ccc(OCc3c(-c4c(Cl)cccc4Cl)noc3C3CC3)cc2Cl)c2ccn(CCN3CCOCC3)c2c1 [Compound I-95, 4-((2-chloro-4-((5-cyclopropyl-3-(2,6-dichlorophenyl)isoxazol-4-yl)methoxy)phenyl)ethynyl)-1-(2-morpholinoethyl)-1H-indole-6-carboxylic acid hydrochloride] | 20 to 60 nM | > 100%
7 | CN(C)c1cc(C#Cc2ccc(OCc3c(-c4c(Cl)cccc4Cl)noc3C3CC3)cc2Cl)ccc1C(=O)O [Compound I-23, 4-((2-chloro-4-((5-cyclopropyl-3-(2,6-dichlorophenyl)isoxazol-4-yl)methoxy)phenyl)ethynyl)-2-(dimethylamino)benzoic acid] | 60 to 200 nM | > 100%
8 | O=C(O)c1cc(C#Cc2ccc(OCc3c(-c4c(Cl)cccc4Cl)noc3C3CC3)cc2Cl)cc2[nH]ccc12 [Compound I-101, 6-((2-chloro-4-((5-cyclopropyl-3-(2,6-dichlorophenyl)isoxazol-4-yl)methoxy)phenyl)ethynyl)-1H-indole-4-carboxylic acid] | ≤ 20 nM | 97%
9 | CCc1nc2c(C(=O)O)cc(C#Cc3ccc(OCc4c(-c5c(Cl)cccc5Cl)noc4C4CC4)cc3Cl)cc2o1 [Compound I-113, 6-((2-chloro-4-((5-cyclopropyl-3-(2,6-dichlorophenyl)isoxazol-4-yl)methoxy)phenyl)ethynyl)-2-ethylbenzo[d]oxazole-4-carboxylic acid] | 20 to 60 nM | 96%
10 | O=C(O)c1cc(C#Cc2ccc(OCc3c(-c4c(Cl)cccc4Cl)noc3C3CC3)cc2Cl)cc(N2CCOC2=O)c1 [Compound I-83, 3-((2-chloro-4-((5-cyclopropyl-3-(2,6-dichlorophenyl)isoxazol-4-yl)methoxy)phenyl)ethynyl)-5-(2-oxooxazolidin-3-yl)benzoic acid] | 20 to 60 nM | 89%
11 | CC(C)NCCCn1ccc2c(C#Cc3ccc(OCc4c(-c5c(Cl)cccc5Cl)noc4C4CC4)cc3Cl)cc(C(=O)O)cc21 [Compound I-93, 4-((2-chloro-4-((5-cyclopropyl-3-(2,6-dichlorophenyl)isoxazol-4-yl)methoxy)phenyl)ethynyl)-1-(3-(isopropylamino)propyl)-1H-indole-6-carboxylic acid] | 200 to 1000 nM | 82%
12 | CCCc1nc2c(C(=O)O)cc(C#Cc3ccc(OCc4c(-c5c(Cl)cccc5Cl)noc4C4CC4)cc3Cl)cc2o1 [Compound I-114, 6 ((2-chloro-((5-cyclopropyl-3-(2,6-dichlorophenyl)isoxazol-4-yl)methoxy)phenyl)ethynyl)-2-propylbenzo[d]oxazole-4-carboxylic acid] | 20 to 60 nM | > 100%
13 | O=C(O)c1cccc(C#Cc2ccc(OCc3c(-c4c(Cl)cccc4Cl)noc3C3CC3)cc2Cl)n1 [Compound I-19, 6-((2-chloro-4-((5-cyclopropyl-3-(2,6-dichlorophenyl)isoxazol-4-yl)methoxy)phenyl)ethynyl)picolinic acid] | ≤ 20 nM | 99%
14 | O=C(O)c1cc(C#Cc2ccc(OCc3c(-c4c(Cl)cccc4Cl)noc3C3CC3)cc2Cl)cc(C2CC2)c1 [Compound I-64, 3-((2-chloro-4-((5-cyclopropyl-3-(2,6-dichlorophenyl)isoxazol-4-yl)methoxy)phenyl)ethynyl)-5-cyclopropylbenzoic acid] | 20 to 60 nM | > 100%
15 | Cc1c(N)cc(C#Cc2ccc(OCc3c(-c4c(Cl)cccc4Cl)noc3C3CC3)cc2Cl)cc1C(=O)O [Compound I-71, 3-amino-5-((2-chloro-4-((5-cyclopropyl-3-(2,6-dichlorophenyl)isoxazol-4-yl)methoxy)phenyl)ethynyl)-2-methylbenzoic acid] | 200 to 1000 nM | > 100%
16 | CC(C)(C)NCc1cc(C#Cc2ccc(OCc3c(-c4c(Cl)cccc4Cl)noc3C3CC3)cc2Cl)cc(C(=O)O)c1 [Compound I-48, 3-((tert-butylamino)methyl)-5-((2-chloro-4-((5-cyclopropyl-3-(2,6-dichlorophenyl)isoxazol-4-yl)methoxy)phenyl)ethynyl)benzoic acid] | 200 to 1000 nM | 81%
17 | O=C(O)c1cccc(C#Cc2ccc(OCc3c(-c4ccccc4C(F)(F)F)noc3C3CC3)cc2Cl)c1 [Compound I-87, 3-((2-chloro-4-((5-cyclopropyl-3-(2-(trifluoromethyl)phenyl)isoxazol-yl)methoxy)phenyl)ethynyl)benzoic acid] | 200 to 1000 nM | > 100%
18 | O=C(O)c1cc(C#Cc2ccc(OCc3c(-c4c(Cl)cccc4Cl)noc3C3CC3)cc2Cl)cc(CN2CCC2)c1 [Compound I-43, 3-(azetidin-1-ylmethyl)-5-((2-chloro-4-((5-cyclopropyl-3-(2,6-dichlorophenyl)isoxazol-4-yl)methoxy)phenyl)ethynyl)benzoic acid] | 60 to 200 nM | > 100%
19 | CCNC(=O)Nc1cc(C#Cc2ccc(OCc3c(-c4c(Cl)cccc4Cl)noc3C3CC3)cc2Cl)cc(C(=O)O)c1 [Compound I-72, 3-((2-chloro-4-((5-cyclopropyl-3-(2,6-dichlorophenyl)isoxazol-4-yl)methoxy)phenyl)ethynyl)-5-(3-ethylureido)benzoic acid] | 200 to 1000 nM | > 100%
20 | CN(C(=O)OC(C)(C)C)c1cc(C#Cc2ccc(OCc3c(-c4c(Cl)cccc4Cl)noc3C3CC3)cc2Cl)cc(C(=O)O)c1 [Compound I-78, 3-((tert-butoxycarbonyl)(methyl)amino)-5-((2-chloro-4-((5-cyclopropyl-3-(2,6-dichlorophenyl)isoxazol-4-yl)methoxy)phenyl)ethynyl)benzoic acid] | 20 to 60 nM | 89%
21 | O=C(O)c1ccc(C#Cc2ccc(OCc3c(-c4c(Cl)cccc4Cl)noc3C3CC3)cc2C(F)(F)F)cc1 [Compound I-4, 4-((4 ((5-cyclopropyl-3-(2,6-dichlorophenyl)isoxazol-4-yl)methoxy)-2-(trifluoromethyl)phenyl)ethynyl)benzoic acid] | 60 to 200 nM | 91%
22 | O=C(O)c1cc(C#Cc2ccc(OCc3c(-c4c(Cl)cccc4Cl)noc3C3CC3)cc2Cl)cc(CNC2CC2)c1 [Compound I-42, 3-((2-chloro-4-((5-cyclopropyl-3-(2,6-dichlorophenyl)isoxazol-4-yl)methoxy)phenyl)ethynyl)-5-((cyclopropylamino)methyl)benzoic acid] | 20 to 60 nM | > 100%
23 | O=C(O)c1cccc(C#Cc2ccc(OCc3c(-c4c(Cl)cccc4Cl)noc3C3CC3)cc2Cl)c1F [Compound I-36, 3-((2-chloro-4-((5-cyclopropyl-3-(2,6-dichlorophenyl)isoxazol-4-yl)methoxy)phenyl)ethynyl)-2-fluorobenzoic acid] | 60 to 200 nM | 93%
24 | O=C(O)c1cc(C#Cc2ccc(OCc3c(-c4c(Cl)cccc4Cl)noc3C3CC3)cc2Cl)cc(OC(F)(F)F)c1 [Compound I-39, 3-((2-chloro-4-((5-cyclopropyl-3-(2,6-dichlorophenyl)isoxazol-4-yl)methoxy)phenyl)ethynyl)-5-(trifluoromethoxy)benzoic acid] | 200 to 1000 nM | 85%
